# Experimental data reported in patent US4235902A, “Pesticidal carbamate esters of 5-oximino-1,3-oxazolidin-4-ones” (priority 1976, dated 1980).
# Tests used:
# [1] = system: two-spotted mite (Tetranychus urticae Koch); experiment: Mite foliage spray test; assay type: in vivo; set-up: key: A: excellent control; B: partial control; C: no control; settings: 500 parts per million, six days
# Protocol: (§1) Suspensions of the test compounds were prepared by dissolving one gram of compound in 50 milliliters of acetone in which had been dissolved 0.1 gram (10 percent of the weight of compound) of an alkylphenoxy polyethoxyethanol surfactant, as an emulsifying or dispersing agent. The resulting solution was mixed into 150 milliliters of water to give roughtly 200 milliliters of a suspension containing the compound in finely divided form. The thus-prepared stock suspension contained 0.5 percent by weight of compound. The test concentrations in parts per million by weight employed in the tests described hereinbelow were obtained by appropriate dilutions of the stock suspension with water. The test procedures were as follows:
# Adults and nymphal stages of the two-spotted mite (Tetranychus urticae Koch), reared on Tendergreen bean plants at 80±5 per cent relative humidity, were the test organisms. Infested leaves from a stock culture were placed on the primary leaves of two bean plants six to eight inches in height, growing in a two-and-a-half inch clay pot. 150-200 Mites, a sufficient number for testing, transferred from the excised leaves to the fresh plants in a period of twenty four hours. Following the twenty four hour transfer period, the excised leaves were removed from the infested plants. The test compounds were formulated by diluting the stock suspension with water to give a suspension containing 500 parts of test compound per million parts of final formulation. The potted plants (one pot per compound) were placed on a revolving turntable and sprayed with 100-110 milliliters of test compound formulation by use of a DeVilbiss spray gun set at 40 psig. air pressure. This application, which lasted 25 seconds, was sufficient to wet the plants to run-off. As a control, 100-110 milliliteres of a water solution containing acetone and emulsifier in the same concentrations as the test compound formulation, but containing no test compound, were also sprayed on infested plants. The sprayed plants were held at 80±5 per cent relative humidity for six days, after which a mortality count of motile forms was made. Microscopic examination for motile forms was made on the leaves of the test plants. Any individual which was capable of locomotion upon prodding was considered living.
# (§2) In these tests the pesticidal activity of the compounds against aphid, mite, Southern Armyworm, Mexican Bean Beetle, nematodes and house fly was rated as follows: […]
# [2] = Acute oral (peroral) toxicity to mammals; settings: in vivo, rat, mortality rate of 50 percent
# Protocol: Certain of these compositions were also evaluated to determine their peroral toxicity to mammals. The animal selected for this experiment was the rat. The test results obtained are expressed in terms of the number of milligrams of compositions per kilogram of weight of the animal required to achieve a mortality rate of 50 percent (LD50).
# [3] = system: Mexican bean beetle (Epilachna varivestis, Muls.); experiment: Mexican bean beetle leaf spray test; assay type: in vivo; set-up: key: A: excellent control; B: partial control; C: no control; settings: 500 parts per million, fourth instar larvae, three days
# Protocol: as §1
# MEXICAN BEAN BEETLE LEAF SPRAY TEST
# Fourth instar larvae of the Mexican bean beetle (Epilachna varivestis, Muls.), reared on Tendergreen bean plants at a temperature of 80±5° F. and 50±5 per cent relative humidity, were the test insects.
# The test compounds were formulated by diluting the stock suspension with water to give a suspension containing 500 parts of test compound per million parts of final formulation. Potted Tendergreen bean plants of standard height and age were placed on a revolving turntable and sprayed with 100-110 milliliters of test compound formulation by use of a DeVilbiss spray gun set at 10 psig air pressure. This application, which lasted 25 seconds, was sufficient to wet plants to run-off. As a control 100-110 milliliters of a water-acetone-emulsifier solution containing no test compound were also sprayed on infested plants. When dry, the paired leaves were separated and each was placed in a 9 centimeter Petri dish lined with moistened filter paper. Five randomly selected larvae were introduced into each dish, and the dishes were closed. The closed dishes were labeled and held at a temperature of 80±5° F. for three days. Although the larvae could easily consume the leaf within 24 to 48 hours, no more food was added. Larvae which were unable to move the length of the body, even upon stimulation, were considered dead.
# as §2
# [4] = system: house flies (Musca domestica, L.); experiment: Fly bait test; assay type: in vivo; set-up: key: A: excellent control; B: partial control; C: no control; settings: 500 parts per million in sugar bait; twenty four hours
# Protocol: as §1
# Four to six day old adult house flies (Musca domestica, L.), reared according to the specifications of the Chemical Specialities Manufacturing Association (Blue Book, McNair-Dorland Co., N. Y. 1954; pages 243-244, 261) under controlled conditions of 80±5° F. and 50±5 per cent relative humidity, were the test insects. The flies were immobilized by anesthetizing with carbon dioxide and twenty five immobilized individuals, males and females, were transferred to a cage consisting of a standard food strainer about five inches in diameter which was inverted over a wrapping-paper-covered surface. The test compounds were formulated by diluting the stock suspension with a 10 per cent (by weight) sugar solution to give a suspension containing 500 parts of test compound per million parts of final formulation, by weight. Ten milliliters of the test formulation were added to a souffle cup containing a one-inch square of an absorbent cotton pad. This bait cup was introduced and centered on the blotting paper under the food strainer prior to admitting the anesthetized flies. The caged flies were allowed to feed on the bait for twenty four hours, at a temperature of 80±5° F. and the relative humidity of 50±5 per cent.
# as §2
# [5] = system: southern armyworm (Prodenia eridania, (Cram.)); experiment: Southern armyworm leaf spray test; assay type: in vivo; set-up: key: A: excellent control; B: partial control; C: no control; settings: 500 parts per million, larvae, three days
# Protocol: as §1
# SOUTHERN ARMYWORM LEAF SPRAY TEST
# Larvae of the southern armyworm (Prodenia eridania, (Cram.)), reared on Tendergreen bean plants at a temperature of 80±5° F. and a relative humidity of 50±5 per cent, constituted the test insects.
# The test compounds were formulated by diluting the stock suspension with water to give a suspension containing 500 parts of test compound per million parts of final formulation. Potted Tendergreen bean plants of standard height and age were placed on a revolving turntable and sprayed with 100-110 milliliters of test compound formulation by use of a DeVilbiss spray gun set at 10 psig air pressure. This application, which lasted 25 seconds, was sufficient to wet plants to run-off. As a control, 100-110 milliliters of a water-acetone-emulsifier solution containing no test compound were also sprayed on infested plants. When dry, the paired leaves were separated and each one was placed in a 9 centimeter Petri dish lined with moistened filter paper. Five randomly selected larvae were introduced into each dish and the dishes were closed. The closed dishes were labeled and held at 80°-85° F. for three days. Although the larvae could easily consume the whole leaf within twenty-four hours, no more food was added. Larvae which were unable to move the length of the body, even upon stimulation by prodding, were considered dead. Per cent mortality was recorded for various concentration levels.
# as §2
# [6] = system: root-knot nematode, Meloidogyne incognita var. acrita; experiment: Nematocide test; assay type: in vivo; set-up: key: A: excellent control; B: partial control; C: no control; settings: 3.33 m.g. per jar; galling of cucumber roots rated after approximately 3 weeks
# Protocol: The test organism used was the infective migratory larvae of the root-knot nematode, Meloidogyne incognita var. acrita, reared in the greenhouse on roots of cucumber plants. Infected plants were removed from the culture, and the roots are chopped very finely. A small amount of this inoculum was added to a pint jar containing approximately 180 cc. of soil. The jars were capped and incubated for one week at room temperature. During this period eggs of the nematode were hatched, and the larval forms migrated into the soil.
# Ten ml. of the test formulation were added to each of the two jars for each dosage tested. Following the addition of chemical, the jars were capped, and the contents thoroughly mixed on a ball mill for 5 minutes.
# The test compounds were formulated by a standard procedure of solution in acetone addition of an emulsifier, and dilution with water. Primary screening tests were conducted at 3.33 m.g. of the test compound per jar.
# The jars were left capped at room temperature for a period of 48 hours, and the contents then transferred to 3 inch pots. Subsequently, the pots were seeded to cucumber as an indicator crop and placed in the greenhouse where they were cared for in the normal fashion for approximately 3 weeks.
# The cucumber plants were then taken from the pots, the soil removed from the roots, and the amount of galling visually rated.
# as §2
# [7] = system: bean aphid (Aphis fabae Scop.); experiment: Bean aphid foliage spray test; assay type: in vivo; set-up: key: A: excellent control; B: partial control; C: no control; settings: 500 parts per million, 24 hour
# Protocol: as §1
# BEAN APHID FOLIAGE SPRAY TEST
# Adults and nymphal stages of the bean aphid (Aphis fabae Scop.) reared on potted dwarf nasturtium plants at 64°-70° F. and 50-70 per cent relative humidity, constituted the test insects. For testing purposes, the number of aphids per pot was standardized to 100-150 by trimming plants containing excess aphids.
# The test compounds were formulated by diluting the stock suspension with water to give a suspension containing 500 parts of test compound per million parts of final formulation.
# The potted plants (one pot per compound tested) infested with 100-150 aphids, were placed on a revolving turntable and sprayed with […] of test compound formulation by use of a DeVilbiss spray gun set at 40 psig. air pressure. This application, which lasted 25 seconds, was sufficient to wet the plants to run-off. As a control, 100-110 milliliters of a water-acetone-emulsifier solution containing no test compound were also sprayed on infested plants. After spraying, the pots were placed on their sides on a sheet of white standard mimeograph paper which had been previously ruled to facilitate counting. Temperature and humidity in the test room during the 24 hour holding period were 65°-70° F. and 50-70 per cent, respectively. Aphids which fell onto the paper and were unable to remain standing after being uprighted were considered dead. Aphids remaning on the plants were observed closely for movement and those which were unable to move the length of the body upon stimulation by prodding were considered dead. Per cent mortality was recorded for various concentration levels.
# as §2
smiles,measurement,setting,value
CNC(=O)ON=C1OCC(C)(C)N(C)C1=O,Biological Activity: Mite,[1],A
same,LD50,[2],126 mg/kg
same,Biological Activity: Bean Beetle,[3],A
same,Biological Activity: Housefly,[4],A
same,Biological Activity: Southern Army Worm,[5],C
same,Biological Activity: Nematode,[6],A
same,Biological Activity: Aphid,[7],A
CCC1COC(=NOC(=O)NC)C(=O)N1C (centres unmarked),Biological Activity: Mite,[1],A
same,LD50,[2],23.8 mg/kg
same,Biological Activity: Bean Beetle,[3],C
same,Biological Activity: Housefly,[4],A
same,Biological Activity: Southern Army Worm,[5],A
same,Biological Activity: Nematode,[6],C
same,Biological Activity: Aphid,[7],A
CCC1COC(=NOC(=O)N(C)SC(Cl)(Cl)Cl)C(=O)N1C (centres unmarked),Biological Activity: Mite,[1],A
same,Biological Activity: Bean Beetle,[3],A
same,Biological Activity: Housefly,[4],A
same,Biological Activity: Southern Army Worm,[5],C
same,Biological Activity: Nematode,[6],A
same,Biological Activity: Aphid,[7],A
CCN1CCOC(=NOC(=O)NC)C1=O,Biological Activity: Mite,[1],A
same,Biological Activity: Bean Beetle,[3],C
same,Biological Activity: Housefly,[4],A
same,Biological Activity: Southern Army Worm,[5],C
same,Biological Activity: Nematode,[6],C
same,Biological Activity: Aphid,[7],A
CNC(=O)ON=C1OCCN(C(C)C)C1=O,Biological Activity: Mite,[1],C
same,Biological Activity: Bean Beetle,[3],C
same,Biological Activity: Housefly,[4],A
same,Biological Activity: Southern Army Worm,[5],C
same,Biological Activity: Aphid,[7],A
CCCN1CCOC(=NOC(=O)NC)C1=O,Biological Activity: Mite,[1],A
same,Biological Activity: Bean Beetle,[3],B
same,Biological Activity: Housefly,[4],A
same,Biological Activity: Southern Army Worm,[5],A
same,Biological Activity: Nematode,[6],C
same,Biological Activity: Aphid,[7],A
"CNC(=O)ON=C1OC(C)CN(C)C1=O (centres unmarked) [2-Methylcarbamoyloximino-4,-6-dimethyltetrahydro-1,4-oxazin-3-one]",Biological Activity: Mite,[1],A
same,Biological Activity: Bean Beetle,[3],A
same,Biological Activity: Housefly,[4],A
same,Biological Activity: Southern Army Worm,[5],A
same,Biological Activity: Nematode,[6],A
same,Biological Activity: Aphid,[7],A
"CNC(=O)ON=C1OCCN(C)C1=O [2-Methylcarbamoyloximino-4-methyltetrahydro1,4-oxazin-3-one]",Biological Activity: Mite,[1],A
same,LD50,[2],343 mg/kg
same,Biological Activity: Bean Beetle,[3],A
same,Biological Activity: Housefly,[4],A
same,Biological Activity: Southern Army Worm,[5],A
same,Biological Activity: Nematode,[6],A
same,Biological Activity: Aphid,[7],A
"CN(SC(Cl)(Cl)Cl)C(=O)ON=C1OCC(C)(C)N(C)C1=O [2-[N-Trichloromethanesulfenyl-N-methyl/carbamoyloximino]-4,5,5-trimethyltetrahydro, -1,4-oxazin-3-one]",Biological Activity: Mite,[1],A
same,LD50,[2],794 mg/kg
same,Biological Activity: Bean Beetle,[3],B
same,Biological Activity: Housefly,[4],A
same,Biological Activity: Southern Army Worm,[5],C
same,Biological Activity: Aphid,[7],A
"CN1CCOC(=NOC(=O)N(C)SC(Cl)(Cl)Cl)C1=O [2-[N-Trichloromethanesulfenyl-N-methylcarbamoyloximino]-4-methyltetrahydro-1,4-oxazin-3-one]",Biological Activity: Mite,[1],B
same,Biological Activity: Bean Beetle,[3],A
same,Biological Activity: Housefly,[4],A
same,Biological Activity: Southern Army Worm,[5],C
same,Biological Activity: Nematode,[6],A
same,Biological Activity: Aphid,[7],A
